Here are results for 24 molecules from patent US20130190345A1, “MATRINIC ACID/MATRINE DERIVATIVES AND PREPARATION METHODS AND USES THEREOF” (priority 2010, published 2013).

Values after ≈ are worked out from the molar mass of the structure shown.

What all share (assay type): cell-based
For data set [1], the system named is Hsc70. In words: Detection of Hsc70 gene expression level upon action of compound on 2.2.15 cells (real-time fluorescent quantified PCR). As to conditions: for Hsc70 inhibition rate (down-regulation of Hsc70 expression activity, expressed in relative OMT ratio): relative to OMT (= 1); for Hsc70 down-regulation rate (%): single value, concentration not given, values coincide with Table 1 relative OMT ratios. More on the design: Hsc70 mRNA / Hsc70 down-regulation rate (%): unit not given here. On the procedure:
2.2.15 cells (purchased from Vertex Pharmaceutical Co., USA) in a number of 1×10^6 were inocubated to 6-well plate, cultured in a culture medium containing 10% fetal calf serum for 24 hr, the original culture medium was discarded, replaced with a culutre medium containing 400 μg/ml OMTR, which was used as control. Compounds were firstly dissolved in MEM to form 20 mg/ml mother liquid, which was diluted with culture medium when used and then applied to cells. The compounds of Examples 1-114 were separately used for treatment for 12, 24, 36 hr, then cells were harvested for extraction of RNA and DNA, then the changes of Hsc70 mRNA and HBV DNA were detected by real-time fluorescent quantified PCR.

The test system of another data set is HCV. Kind of data set: Inhibition effects of compounds on HCV in Huh7.5 cultured cell after HCV infection. As to conditions: for anti-HCV activity (HCV nucleoprotein and Hsc70 protein levels): HCV-infected Huh7.5 cells, 200 μg/mL, Western blotting (FIG. 7B); for EC50 (half effective concentration): virus not given, stands beside HCV inhibition rate. On the procedure:
1×10^5/ml Huh7.5 cells (purchased from Vertex Pharmaceutical Co., USA) were inoculated in an amount of 0.1 ml on 96-well culture plate, placed in an incubator with 37° C., 5% CO2 content and saturation humidity, and cultured for 24 h, HCV virus in 45 IU/cell was used to infect Huh7.5, different drug solutions (DM122) formulated with culture medium were added, and cell control and HCV infection control were set. Cultivation was continuously performed in the incubator with 37° C., 5% CO2 content and saturation humidity for 72 h, kit for RNA extraction was used to extract intracellular RNA, one-step qRT-PCR was used to determine intracellular contents of HCV and GAPDH RNA, and the inhibition effects of drug on HCV infection was analyzed. […] In comparison with the virus control group, the inhibition effects on HCV infection upon action of different drugs were analyzed. […] This experiment was repeated for 3 times, * indicated […] in comparison with control, ** indicated p<0.01 in comparison with control.

Data set [2] relates to Hsc70. Kind of data set: Inhibition effects of compound on Hsc70 in Huh7.5 cultured cell (qRT-PCR, Western blotting). On the set-up: key to Hsc70 down-regulation rate (%): “—” represents no significant inhibition rate. How it is done: 2×10^5/ml Huh7.5 cells (purchased from Vertex Pharmaceutical Co., USA) were inoculated in an amount of 3 ml on 6-well culture plate, placed in an incubator with 37° C., 5% CO2 content, saturation humidity, and cultured for 24 h, added with different drug solutions (DM122) formulated with culture medium, and cell control was set. Cultivation was continuously performed in the incubator with 37° C., 5% CO2 content, saturation humidity for 24 h, a kit for RNA extraction was used to extract intracellular RNA from the cells, and one-step qRT-PCR was used to determine intracellular contents of Hsc70 and GAPDHRNA. After the cultivation of cells was performed for 48 h, the cells were digested and harvested, then the cells were split with CytoBuster™ Protein Extraction Buffer that contained many kinds of protease inhibitors, total intracellular proteins were extracted, and Western blotting was used to analyze the contents of Hsc70 and GAPDH proteins. In comparison with the cell control, the inhibition effects on Hsc70 upon action of different drugs were analyzed.
In general terms: Quantitative PCR measures a nucleic acid by following its amplification.

The next data set has as its system 2.2.15 cells. Kind of data set: Drug TC50 by MTT detection. As to conditions: Reed-Muench. On the procedure:
2.2.15 cells (all cells were purchased from Vertex Pharmaceutical Co., USA) in exponential growth phase were inoculated on 96-well culture plate, 2×10^5 cells/well, added with culture media containing PFA diluted in different concentration rates, 3 wells for each diluted concentration, placed in 37° C. CO2—containing incubator and cultivated for 48 h; the supernatant was discarded, 100 μl of MTT (0.5 mg/ml) in culture medium was added, cultivation was continuously performed at 37° C. for 4 h; each well was added to 100 μl of 50% DMF-20% SDS destaining solution, stood at 37° C. overnight; ELISA was used to measure optical density at wavelength of 570 nm (0D570).
In each experiment, 3 cell control wells and 3 blank controls well were set, the results were used in formula, (cell control OD570-drug-medicated cell OD570)/cell control OD570, to calculate cell death rate (%), and Reed-Muench method was used to calculate half toxic concentration TC50.

With `CC(Cl)C(=O)OC1CC2C3CCCN4CCCC(CN2C(=O)C1O)C34` (stereo not drawn) [Compound 9g, 14-hydroxyl-13-2-chloropropionyloxy matrine], the “Hsc70 mRNA” value with Hsc70 [1] (2.2.15 cells, down-regulation of liver cell Hsc70 gene) is recorded as 48.6 ± 0.11. The “anti-HCV activity (HCV nucleoprotein and Hsc70 protein levels)” value in the data set with HCV is listed as “significant activity on anti-HCV”.
For `Cc1ccc([N+](=O)[O-])cc1C(=O)N1C[C@H]2CCCN3CCC[C@@H]([C@H]23)[C@H]1CCCC(=O)O` [Compound L2, (5R)—N-(2-methyl-5-nitrobenzoyl)matrinic acid], the figures for the “Hsc70 down-regulation rate (%)” value in the data set on Hsc70 [2] (200 ug/ml (upper data)) and in the data set on Hsc70 [2] (400 ug/ml (lower data)) were 76.6 ± 2.5% and 32.7 ± 5.0%, respectively. In addition, the “HCV inhibition rate (%)” value in the data set with HCV (200 ug/ml (upper data)) was determined as 27.9 ± 16.3%; with HCV (400 ug/ml (lower data)) it was 5.3 ± 5.1%.
With `O=C(O)CCCC1C2CCCN3CCCC(CN1C(=O)c1cccc([N+](=O)[O-])c1)C23` [Compound L9, (5R)—N-(3-nitrobenzoyl)matrinic acid], the “Hsc70 down-regulation rate (%)” value with Hsc70 [2] (200 ug/ml (upper data)) is given as 20.1 ± 11.1%; with Hsc70 [2] (400 ug/ml (lower data)) it was “—”. For the same molecule, the figures for the “HCV inhibition rate (%)” value in the data set with HCV (200 ug/ml (upper data)) and in the data set with HCV (400 ug/ml (lower data)) were 62.5 ± 0.3% and 68.9 ± 3.8%, respectively.
On the same counts, the results for `COc1ccc(C(=O)N2CC3CCCN4CCCC(C34)C2CCCC(=O)O)cc1` [Compound L11, (5R)—N-(p-methoxybenzoyl)matrinic acid] are 31.4 ± 12.2%, “—”, 46.7 ± 12.7% and 61.6 ± 3.9%.
Regarding `O=C(O)CCC[C@@H]1[C@H]2CCCN3CCC[C@@H](CN1C(=O)c1cccc([N+](=O)[O-])c1)[C@@H]23` [DM-121, N-(3-nitrobenzoyl) matrinic acid], in the data set on Hsc70 [1] (2.2.15 cells), the “Hsc70 inhibition rate (down-regulation of Hsc70 expression activity, expressed in relative OMT ratio)” value amounted to 0.23. The “Hsc70 down-regulation rate (%)” value in the data set on Hsc70 [2] (200 ug/ml (upper data)) and with Hsc70 [2] (400 ug/ml (lower data)) was “—” throughout. Also, the “HCV inhibition rate (%)” value with HCV (400 ug/ml (lower data)) amounted to 14.9 ± 9.0%.
`O=C(O)CCCC1C2CCCN3CCCC(CN1Cc1ccccc1Cl)C23` (stereo not drawn) [DM-124, N-(2-chlorobenzyl) matrinic acid]: the “Hsc70 inhibition rate (down-regulation of Hsc70 expression activity, expressed in relative OMT ratio)” value in the data set on Hsc70 [1] (2.2.15 cells) was determined as 0.32. In the data set with Hsc70 [1], the “Hsc70 down-regulation rate (%)” value is 0.32. Besides, in the data set with HCV, the “EC50 (half effective concentration)” value worked out at 68.27 µg/mL (≈ 175 µM). The “CC50 (concentration to cause poisoning in half cells)” value (shortened to “CC50”) in the data set on 2.2.15 cells is 504.6 µg/mL (≈ 1290 µM).
On to `O=C(O)CCCC1C2CCCN3CCCC(CN1Cc1cccc(Cl)c1)C23` (stereo not drawn) [DM-125, N-(3-chlorobenzyl) matrinic acid], for which the “Hsc70 inhibition rate (down-regulation of Hsc70 expression activity, expressed in relative OMT ratio)” value in the data set on Hsc70 [1] (2.2.15 cells) is given as <10. In the data set with Hsc70 [1], the “Hsc70 down-regulation rate (%)” value was −67.97. The “EC50 (half effective concentration)” value with HCV worked out at 34.35 µg/mL (≈ 87.9 µM). In addition, the “CC50” value with 2.2.15 cells was >1000 µg/mL.
For `O=C(O)CCCC1C2CCCN3CCCC(CN1Cc1ccc(Cl)cc1)C23` (stereo not drawn) [DM-126, N-(4-chlorobenzyl) matrinic acid] the same measures were 0.62, 0.62, 21.11 µg/mL (≈ 54 µM) and >1000 µg/mL.
Regarding `O=C(O)CCCC1C2CCCN3CCCC(CN1Cc1cccnc1)C23` (stereo not drawn) [DM-144, N-(pyridin-3-yl) methyl matrinic acid], the “EC50 (half effective concentration)” value in the data set on HCV stood at 31.8 µg/mL (≈ 89 µM). Moreover, the “CC50” value in the data set with 2.2.15 cells is >1000 µg/mL.
On the same counts, the results for `O=C(O)CCCC1C2CCCN3CCCC(CN1Cc1ccncc1)C23` (stereo not drawn) [DM-145, N-(pyridin-4-yl)methyl matrinic acid] are 117.2 µg/mL (≈ 328 µM) and >1000 µg/mL.
On the same counts, the results for `O=C(O)CCCC1C2CCCN3CCCC(CN1Cc1cccc4ccccc14)C23` (stereo not drawn) [DM-148, N-(naphthyl-1-yl) methyl matrinic acid] are >333.3 µg/mL and 529.86 µg/mL (≈ 1300 µM).
As for `COc1ccc(C(=O)N2CC3CCCN4CCCC(C34)C2CCCC(=O)O)cc1` (stereo not drawn) [DM-151, N-(4-methoxybenzoyl) matrinic acid], the “Hsc70 down-regulation rate (%)” value is given as “—” in the data set with Hsc70 [2] (200 ug/ml (upper data)) and 11.5 ± 2.4% in the data set with Hsc70 [2] (400 ug/ml (lower data)). Moreover, the “HCV inhibition rate (%)” value with HCV (200 ug/ml (upper data)) worked out at 20.5 ± 3.2%; in the data set with HCV (400 ug/ml (lower data)), 53.4 ± 5.6%.
As to `N#Cc1ccc(C(=O)N2CC3CCCN4CCCC(C34)C2CCCC(=O)O)cc1` (stereo not drawn) [DM-152, N-(4-cyanobenzoyl) matrinic acid], in the data set on HCV, the “EC50 (half effective concentration)” value stood at 125.65 µg/mL (≈ 318 µM). Besides, the “CC50” value with 2.2.15 cells was >1000 µg/mL.
As to `Cc1ccc(C(=O)N2C[C@@H]3CCCN4CCC[C@@H]([C@H]34)[C@H]2CCCC(=O)O)cc1` [DM-153, N-(4-methylbenzoyl) matrinic acid], the figures for the “Hsc70 down-regulation rate (%)” value in the data set on Hsc70 [2] (200 ug/ml (upper data)) and in the data set with Hsc70 [2] (400 ug/ml (lower data)) were 38.6 ± 15.8% and 32.6 ± 14. %, respectively. Besides, the “HCV inhibition rate (%)” value is 47.8 ± 9.4% with HCV (200 ug/ml (upper data)) and 29.2 ± 29.5% in the data set on HCV (400 ug/ml (lower data)).
`O=C(O)CCCC1C2CCCN3CCCC(CN1C(=O)c1ccc(F)cc1)C23` (stereo not drawn) [DM-154, N-(4-fluorobenzoyl) matrinic acid]: the “EC50 (half effective concentration)” value in the data set on HCV is >333.33 µg/mL. The “CC50” value in the data set with 2.2.15 cells is >1000 µg/mL.
On the same counts, the results for `O=C(O)CCC[C@@H]1[C@H]2CCCN3CCC[C@@H](CN1C(=O)c1ccc(C(F)(F)F)cc1)[C@@H]23` [DM-155, N-(4-trifluoromethylbenzoyl) matrinic acid] are >333.33 µg/mL and >1000 µg/mL.
On to `COc1ccc(CN2CC3CCC[N+]4([O-])CCCC(C2CCCC(=O)O)C34)cc1` (stereo not drawn) [DM-1221, N-(4-methoxybenzyl) oxymatrinic acid], for which the “Hsc70 inhibition rate (down-regulation of Hsc70 expression activity, expressed in relative OMT ratio)” value in the data set with Hsc70 [1] (2.2.15 cells) is recorded as 1.34.
With `O=C1CCC[C@@H]2[C@H]3CCCN4CCC[C@@H](CN12)[C@@H]34` [MT, Matrine], the “Hsc70 inhibition rate (down-regulation of Hsc70 expression activity, expressed in relative OMT ratio)” value in the data set with Hsc70 [1] (2.2.15 cells) is −16.
Still for that read-out and setting: the result for `O=C1CCC[C@@H]2[C@H]3CCC[N+]4([O-])CCC[C@@H](CN12)[C@@H]34` (stereo partly drawn) [OMT, Oxymatrine, reference compound] reads 1.
In the case of `O=C(O)C=CCC1C2CCCN3CCCC(CN1S(=O)(=O)c1ccc(C(F)(F)F)cc1)C23` (stereo not drawn) [SC-84a, N-(p-trifluoromethylbenzene sulfonyl) sophocarpinic acid], the “EC50 (half effective concentration)” value in the data set on HCV came to 7.54 µg/mL (≈ 16 µM). Also, in the data set with 2.2.15 cells, the “CC50” value was 530.07 µg/mL (≈ 1120 µM).
On the same counts, the results for `N#Cc1cccc(S(=O)(=O)N2CC3CCCN4CCCC(C34)C2CC=CC(=O)O)c1` (stereo not drawn) [SC-89b, N-(m-cyanobenzenesulfonyl) sophocarpinic acid] are 3.98 µg/mL (≈ 9.27 µM) and 123.08 µg/mL (≈ 287 µM).
On to N,N-dimethyl oxymatrinic acid [DM-1111], for which the “Hsc70 inhibition rate (down-regulation of Hsc70 expression activity, expressed in relative OMT ratio)” value with Hsc70 [1] (2.2.15 cells) is −0.25.
Consider N-oxidized kurarinol [DM-2001], for which the “Hsc70 inhibition rate (down-regulation of Hsc70 expression activity, expressed in relative OMT ratio)” value with Hsc70 [1] (2.2.15 cells) is reported as −0.42.
On to α-interferon, for which, in the data set on HCV, the “anti-HCV activity (HCV nucleoprotein and Hsc70 protein levels)” value is given as “capable of inhibiting HCV replication”.
